This is an account of results in patent US12043632B2, “6-heteroaryloxy benzimidazoles and azabenzimidazoles as JAK2 inhibitors” (Ajax Therapeutics, Inc., priority 2020, dated 2024).

The target in this test is T1, JAK2 (JH1domain-catalytic, Y1007F,Y1008F) kinase (Homo sapiens, UniProt O60674, Y1007F/Y1008F).
T1 construct: JAK2 (JH1domain-catalytic, Y1007F,Y1008F) kinase was expressed as N-terminal fusion; made in house; host or cells: transiently transfected HEK293 cells
Description: JAK2 JH1 Domain Binding Assay. The settings on record: qPCR readout.

The structures appear in SMILES notation. pKd: −log10 of the molar value. A value given as a limit tells only on which side of the number the result lay.

T1 sequence (O60674 849-1124 Y1007F/Y1008F limits assumed): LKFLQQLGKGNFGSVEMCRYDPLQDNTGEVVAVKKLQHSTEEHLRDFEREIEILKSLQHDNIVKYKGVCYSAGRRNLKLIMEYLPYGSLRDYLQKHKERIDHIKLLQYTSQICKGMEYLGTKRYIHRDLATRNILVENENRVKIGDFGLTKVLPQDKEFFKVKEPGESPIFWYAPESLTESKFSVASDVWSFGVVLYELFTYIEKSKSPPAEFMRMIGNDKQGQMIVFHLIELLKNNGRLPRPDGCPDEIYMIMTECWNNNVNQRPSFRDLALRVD

Consider `Cn1cc(C(F)(F)F)cc(Nc2nc3ncc(Oc4cnn5ccc(N6CCOCC6)cc45)c(C#N)c3n2C)c1=O` [Example I-281, 1-methyl-2-((1-methyl-2-oxo-5-(trifluoromethyl)-1,2-dihydropyridin-3-yl)amino)-6-((5-morpholinopyrazolo[1,5-a]pyridin-3-yl)oxy)-1H-imidazo[4,5-b]pyridine-7-carbonitrile], for which the pKd (commonly the negative decadic logarithm of the Kd, by convention in mol/L) is > 8.00.
Next, `COc1c(Oc2cnn3ccncc23)cnc2nc(Nc3cc(C4CC4)cn([C@H]4CCCOC4)c3=O)n(C)c12` (single isomer, unassigned) [Example I-72-b]: > 8.00; `Cn1c(Nc2ccc(CN3CCCC(F)(F)C3)c(C(F)(F)F)c2)nc2ncc(Oc3cnn4ccncc34)c(Cl)c21` [Example I-174, 7-chloro-N-(4-((3,3-difluoropiperidin-1-yl)methyl)-3-(trifluoromethyl)phenyl)-1-methyl-6-(pyrazolo[1,5-a]pyrazin-3-yloxy)-1H-imidazo[4,5-b]pyridin-2-amine]: 7.30 to 8.00; `CN1CC[C@@H](n2nc(Nc3nc4ncc(Oc5cnc6sccc6c5)c(Cl)c4n3C)cc2C(C)(C)C)C1` [Example I-20, (R)—N-(5-(tert-butyl)-1-(1-methylpyrrolidin-3-yl)-1H-pyrazol-3-yl)-7-chloro-1-methyl-6-(thieno[2,3-b]pyridin-5-yloxy)-1H-imidazo[4,5-b]pyridin-2-amine]: 6.00 to 7.30.
As for `COc1c(Oc2cnn3ccncc23)cnc2nc(Nc3cc(C4CC4)cn([C@@H]4CC[C@@H]4O)c3=O)n(C)c12` (single isomer, unassigned) [Example I-104-a], the pKd is > 8.00.
Regarding `Cn1c(Nc2cc(C3CC3)nn([C@@H]3CCOC3)c2=O)nc2ncc(Oc3cnn4ccccc34)c(Cl)c21` [Example I-142, (R)-4-((7-chloro-1-methyl-6-(pyrazolo[1,5-a]pyridin-3-yloxy)-1H-imidazo[4,5-b]pyridin-2-yl)amino)-6-cyclopropyl-2-(tetrahydrofuran-3-yl)pyridazin-3(2H)-one], the pKd is > 8.00.
For `CN1C(=O)c2cc(Nc3nc4ncc(Oc5cnn6ccncc56)c(Cl)c4n3C)cc(C(F)(F)F)c2C1(C)C` [Example I-154, 6-((7-chloro-1-methyl-6-(pyrazolo[1,5-a]pyrazin-3-yloxy)-1H-imidazo[4,5-b]pyridin-2-yl)amino)-2,3,3-trimethyl-4-(trifluoromethyl)isoindolin-1-one], the pKd is > 8.00.
For the compound `COc1c(Oc2cnn3ccccc23)cnc2nc(Nc3cc(C4CC4)cn(CCO)c3=O)n(C)c12` [Example I-100, 5-cyclopropyl-1-(2-hydroxyethyl)-3-((7-methoxy-1-methyl-6-(pyrazolo[1,5-a]pyridin-3-yloxy)-1H-imidazo[4,5-b]pyridin-2-yl)amino)pyridin-2(1H)-one], the pKd was 7.30 to 8.00.
`CN1CC[C@H](n2nc(Nc3nc4ncc(Oc5cnc6sccc6c5)c(Cl)c4n3C)cc2C(C)(C)C)C1` [Example I-19, (S)—N-(5-(tert-butyl)-1-(1-methylpyrrolidin-3-yl)-1H-pyrazol-3-yl)-7-chloro-1-methyl-6-(thieno[2,3-b]pyridin-5-yloxy)-1H-imidazo[4,5-b]pyridin-2-amine] showed a pKd of 7.30 to 8.00.
Compound `Cn1c(Nc2cc(C(C)(C)C)n([C@@H]3CCN(CCF)C3)n2)nc2ncc(Oc3cnn4ccncc34)c(C(F)F)c21` [Example I-44, (R)—N-(5-(tert-butyl)-1-(1-(2-fluoroethyl)pyrrolidin-3-yl)-1H-pyrazol-3-yl)-7-(difluoromethyl)-1-methyl-6-(pyrazolo[1,5-a]pyrazin-3-yloxy)-1H-imidazo[4,5-b]pyridin-2-amine] showed a pKd of 6.00 to 7.30.
For `COc1c(Oc2cnn3ccncc23)cnc2nc(Nc3cc(C4CC4)cn([C@H]4C[C@@H](O)C4)c3=O)n(C)c12` [Example I-74, cis-5-cyclopropyl-1-(3-hydroxycyclobutyl)-3-((7-methoxy-1-methyl-6-(pyrazolo[1,5-a]pyrazin-3-yloxy)-1H-imidazo[4,5-b]pyridin-2-yl)amino)pyridin-2(1H)-one], the pKd was > 8.00.
Next, `COc1c(Oc2cnn3ccncc23)cnc2nc(Nc3cc(C(C)(C)C)n([C@@H]4CCC[C@@H]4O)n3)n(C)c12` (single isomer, unassigned) [Example I-69-b]: 7.30 to 8.00; `COc1c(Oc2cnn3ccccc23)cnc2nc(Nc3cc(C4CC4)cn([C@@H]4CC[C@@H]4O)c3=O)n(C)c12` (single isomer, unassigned) [Example I-131-a]: > 8.00; `CNc1nccn2ncc(Oc3cnc4nc(Nc5cc(C(F)(F)F)n([C@H]6COC[C@@H]6O)n5)n(C)c4c3Cl)c12` (single isomer, unassigned) [Example I-279-a]: > 8.00.
As to `CNc1nccn2ncc(Oc3cnc4nc(Nc5cc(C(=O)N(C)C)c(F)c(C(F)(F)F)c5)n(C)c4c3Cl)c12` [Example I-226, 5-((7-chloro-1-methyl-6-((4-(methylamino)pyrazolo[1,5-a]pyrazin-3-yl)oxy)-1H-imidazo[4,5-b]pyridin-2-yl)amino)-2-fluoro-N,N-dimethyl-3-(trifluoromethyl)benzamide], the pKd is 7.30 to 8.00.
As for `CNc1cn2ncc(Oc3cnc4nc(Nc5ccc(CN6CCC(F)(F)C6)c(C(F)(F)F)c5)n(C)c4c3Cl)c2cn1` [Example I-326, 7-chloro-N-(4-((3,3-difluoropyrrolidin-1-yl)methyl)-3-(trifluoromethyl)phenyl)-1-methyl-6-((6-(methylamino)pyrazolo[1,5-a]pyrazin-3-yl)oxy)-1H-imidazo[4,5-b]pyridin-2-amine], the pKd was 6.00 to 7.30.
Regarding `Cn1cc(C(F)(F)F)cc(Nc2nc3ncc(Oc4cnn5ccnc(O[C@H]6CC[C@@H]6O)c45)c(Cl)c3n2C)c1=O` (single isomer, unassigned) [Example I-139-b], the pKd was > 8.00.
Turning to `Cn1c(Nc2cc(C(C)(C)C)n([C@@H]3CCOC3)n2)nc2ncc(Oc3cnn4cnnc4c3)c(Cl)c21` [Example I-15, (R)-6-([1,2,4]triazolo[4,3-b]pyridazin-7-yloxy)-N-(5-(tert-butyl)-1-(tetrahydrofuran-3-yl)-1H-pyrazol-3-yl)-7-chloro-1-methyl-1H-imidazo[4,5-b]pyridin-2-amine], the pKd was 6.00 to 7.30.
With `COc1c(Oc2cnc3sccc3c2)cnc2nc(Nc3cc(C(C)(C)C)n([C@H]4CCN(C)C4)n3)n(C)c12` [Example I-45, (S)—N-(5-(tert-butyl)-1-(1-methylpyrrolidin-3-yl)-1H-pyrazol-3-yl)-7-methoxy-1-methyl-6-(thieno[2,3-b]pyridin-5-yloxy)-1H-imidazo[4,5-b]pyridin-2-amine], the pKd was 7.30 to 8.00.
As to `CCn1c(C(C)(C)C)ncc(Nc2nc3ncc(Oc4cnn5ccnc(NC)c45)c(Cl)c3n2C)c1=O` [Example I-230, 2-(tert-butyl)-5-((7-chloro-1-methyl-6-((4-(methylamino)pyrazolo[1,5-a]pyrazin-3-yl)oxy)-1H-imidazo[4,5-b]pyridin-2-yl)amino)-3-ethylpyrimidin-4(3H)-one], the pKd is 6.00 to 7.30.
As to `CN1CC[C@@H](n2nc(Nc3nc4ncc(Oc5cnn6ccnc6c5)c(Cl)c4n3C)cc2C(C)(C)C)C1` [Example I-36, (R)—N-(5-(tert-butyl)-1-(1-methylpyrrolidin-3-yl)-1H-pyrazol-3-yl)-7-chloro-6-(imidazo[1,2-b]pyridazin-7-yloxy)-1-methyl-1H-imidazo[4,5-b]pyridin-2-amine], the pKd is 6.00 to 7.30.
